Each structure is given as a SMILES string. Several values for one entry are separate records, joined by “and”; a condition that tells them apart may be missing. Identical values can stand only once.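 In this assay, cells in 96-well plates receive the compound at five concentrations for 48 hours. Endpoints are linearly interpolated between the surrounding concentrations. At the GI50, growth is halved. At the TGI there is no net growth.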 Bounds are passed on as bounds.

Common to all, as to experiment: growth of human tumour cells (NCI), 48 h
The subject of experiment [1] is ACHN renal.
For experiment [2], the system named is OVCAR-8 ovarian.
The test system of experiment [3] is NCI-H226 lung.
Experiment [4] has as its system SK-MEL-28 melanoma.
In experiment [5] the test system is T-47D breast.
Experiment [6] deals with CCRF-CEM leukemia.
For experiment [7], the system named is TK-10 renal.
Experiment [8] relates to SF-539 CNS.
Experiment [9] relates to BT-549 breast.
Experiment [10] concerns UO-31 renal.

As for `COc1cccc(-c2nn(C)c3sc(C(=O)NCCN4CCN(c5ccccc5F)CC4)cc23)c1`, the GI50 is 19.2 µM in experiment [1]; 7.85 µM in experiment [2]; 31.3 µM in [3]; 11.1 µM in experiment [4]; 4.32 µM in experiment [5]; 8.54 µM in experiment [6]. Further, the GI50 in [7] was 65.4 µM; in experiment [8], 9.45 µM; in experiment [9], over 100 µM; in experiment [10], 4.56 µM. The TGI in experiment [1] was over 100 µM; in [2] it was over 100 µM; in experiment [3] it was over 100 µM; in experiment [4], 33.4 µM; in [5] it was over 100 µM; in experiment [6] it was over 100 µM. The TGI in experiment [7] is over 100 µM; in [8] it was over 100 µM; in [9], over 100 µM; in experiment [10] it was 47.8 µM.

`C/C(=N\O)c1ccc(Nc2cc(-c3ccccc3)nc3c(O)cccc23)cc1`: the GI50 in [1] was 10.7 µM; in [2], 6.99 µM; in [3], 14.7 µM; in experiment [4] it was 14.5 µM; in experiment [5], 5.44 µM; in experiment [6] it was 3.51 µM. The GI50 was 12 µM in experiment [7], 15.3 µM in experiment [8], 23.3 µM in experiment [9] and 14.8 µM in experiment [10]. Moreover, the TGI in [1] turned out to be 28.2 µM; in [2], 29.2 µM; in experiment [3] it was 31.8 µM; in experiment [4], 32.3 µM; in experiment [5], 32.9 µM; in [6] it was 14.8 µM. Moreover, the TGI came to 29.8 µM in experiment [7], 29.6 µM in experiment [8], 86.6 µM in experiment [9] and 33.7 µM in experiment [10].

For `Nc1c(S(=O)(=O)O)cc2c(c1Cl)C(=O)c1ccccc1C2=O`, the GI50 in [1], in [2], in experiment [3], in [4], in experiment [5] and in experiment [6] was over 100 µM each time. Moreover, the GI50 in experiment [7], in experiment [8], in experiment [9] and in [10] was over 100 µM throughout. The TGI in [1], in [2], in experiment [3], in experiment [4], in [5] and in experiment [6] was over 100 µM in each case. The TGI in [7], in experiment [8], in experiment [9] and in [10] was over 100 µM each time.

Regarding `C=CCOc1ccc2c(c1)CC[C@@H]1[C@@H]2CC[C@]2(C)C(=O)/C(=N/O)C[C@@H]12`, the GI50 in experiment [1] was 2.58 µM; in experiment [2], 9.45 µM; in experiment [3] it was 5.06 µM; in experiment [4], over 46.5 µM; in [5], 2.64 µM; in experiment [6] it was 2.51 µM. For the same compound, the GI50 is 1.49 µM in [7], 15.8 µM in experiment [8], 2.71 µM in experiment [9] and 2.39 µM in experiment [10]. The TGI in experiment [1] was over 37.2 µM; in experiment [2], over 60.2 µM; in [3], 21.7 µM; in experiment [4], over 75.1 µM; in [5], over 40.4 µM; in experiment [6], 8.67 µM. Besides, the TGI in experiment [7] was 13.3 µM; in experiment [8] it was over 50.1 µM; in [9], 19.2 µM; in [10], 39.6 µM.

Take `O=C(Nc1ccc(-n2cc(-c3ccncc3)c(-c3ccc(Cl)c(O)c3)n2)cc1)c1ccc(Cl)c(C(F)(F)F)c1`: the GI50 in experiment [1] is 1.55 µM; in experiment [2], 2.82 µM; in experiment [3] it was 16.3 µM; in experiment [4] it was 1.18 µM; in [5], 3.03 µM; in [6] it was 1.18 µM. Besides, the GI50 in experiment [7] is 2.69 µM; in [8], 0.65 µM; in experiment [9] it was 1.12 µM; in experiment [10], 0.684 µM. Besides, the TGI in [1] is 5.28 µM; in experiment [2], over 46 µM; in experiment [3], over 71 µM; in experiment [4], 3.6 µM; in experiment [5], over 34.9 µM; in [6] it was over 100 µM. The TGI in experiment [7] came out at 11.3 µM; in experiment [8], 2.99 µM; in [9] it was 12.6 µM; in experiment [10], 2.42 µM.

As for `COc1ccc2nc3c(cc2c1)C(=O)CC(C(F)(F)F)C3` (stereo not given), the GI50 in experiment [1] was 1.02 µM; in experiment [2], 1.22 µM; in [3], 3.28 µM; in experiment [4], 1.26 µM; in experiment [5], 3.7 µM; in experiment [6] it was 0.223 µM. For the same compound, the GI50 in [7] was over 84.1 µM; in [8], 1.74 µM; in experiment [9], 3.1 µM; in experiment [10], 1.36 µM. The TGI in [1], in [2], in experiment [3], in experiment [4], in experiment [5] and in [6] was over 100 µM throughout. Further, the TGI in experiment [7] is over 100 µM; in experiment [8], 5.64 µM; in experiment [9], over 100 µM; in [10], over 100 µM.

For the compound `CC(=O)SC(C[N+](=O)[O-])c1ccccc1` (stereo not given), the TGI was 8.94 µM in [1]; 26 µM in experiment [2]; 5.72 µM in [3]; 11.1 µM in experiment [4]; over 71.3 µM in [5]; 19.9 µM in [6]. Moreover, the TGI worked out at 23.6 µM in experiment [7], 5.26 µM in [8], 5.19 µM in experiment [9] and 5.37 µM in [10].

With `N[C@@H](Cc1ccc(N(CCCl)CCCl)cc1)C(=O)O`, the GI50 in [1] is 3.99 µM; in experiment [2], 27.7 µM and 19.7 µM; in [3], 44.6 µM and 26.6 µM; in [4], 68.2 µM and 27.3 µM; in experiment [5] it was 34.3 µM; in experiment [6], 2.47 µM and 1.96 µM. The GI50 in [7] is 75.3 µM; in [8], 6.03 µM and 4.36 µM; in [9] it was 27.8 µM; in experiment [10], 12.9 µM and 29.6 µM. In addition, the TGI in experiment [1] is 21.5 µM and 78.2 µM; in [2], > 100 µM and 50.9 µM and 110 µM; in experiment [3] it was > 100 µM and 52.7 µM and 156 µM; in experiment [4], > 100 µM and 73.5 µM and 165 µM; in [5], > 100 µM and 116 µM; in [6], 78.9 µM and > 96.4 µM and 66.8 µM. In addition, the TGI in [7] was > 100 µM and 175 µM; in experiment [8], 49.6 µM and 8.61 µM and 53.8 µM; in [9] it was > 100 µM and 100 µM; in experiment [10] it was 65.2 µM and 81.2 µM and 123 µM.

Consider `Nc1nc(-c2ccccc2Cl)cc(-c2ccc(Cl)cc2Cl)n1`, for which the GI50 was 10.4 µM in [1]; 6.87 µM in [2]; 18.1 µM in experiment [3]; 20.9 µM in experiment [4]; 6.58 µM in [5]; 4.17 µM in experiment [6]. Besides, the GI50 was 9.46 µM in experiment [7], 7.39 µM in [8], 13.8 µM in experiment [9] and 13.5 µM in [10]. Also, the TGI in experiment [1], in experiment [2], in experiment [3], in [4], in experiment [5] and in experiment [6] was over 100 µM throughout. Besides, the TGI in experiment [7] was 51 µM; in experiment [8], 67 µM; in [9] it was over 100 µM; in experiment [10], over 100 µM.

As to `COc1ccc(/C=N/C2=C(C#N)C(c3ccccc3)c3ccc4ccccc4c3O2)cc1` (stereo not given), the GI50 in [1] was 0.69 µM; in [2], 0.486 µM; in [3], 2.08 µM; in experiment [4], 1.37 µM; in experiment [5], 0.493 µM; in [6] it was 0.377 µM. The GI50 in [7] was 26 µM; in experiment [8] it was 0.244 µM; in [9] it was 0.793 µM; in [10], 0.368 µM. In addition, the TGI in experiment [1], in experiment [2], in [3], in experiment [4], in experiment [5] and in experiment [6] was over 100 µM in each case. For the same compound, the TGI was over 100 µM in experiment [7], 1.05 µM in experiment [8], over 100 µM in [9] and over 100 µM in [10].

Regarding `O=c1c(Br)ccc(Br)cc1Br`, the GI50 in [1] is 1.26 µM; in experiment [2] it was 2.75 µM; in experiment [3], 2.94 µM; in experiment [4] it was 2.55 µM; in experiment [5], 0.744 µM; in experiment [6], 0.317 µM. The GI50 was 1.55 µM in experiment [7], 1.92 µM in experiment [8], 2.08 µM in experiment [9] and 1.51 µM in experiment [10]. For the same compound, the TGI in [1] is 2.53 µM; in [2], 8.78 µM; in experiment [3], 9.7 µM; in [4], 5.83 µM; in experiment [5], 3.71 µM; in [6], 1.58 µM. Also, the TGI in experiment [7] turned out to be 5.23 µM; in experiment [8], 4.52 µM; in experiment [9], 3.98 µM; in [10], 2.95 µM.

`Cn1cc(C2=C(c3cn(CCCN/C(N)=N\[N+](=O)[O-])c4ccccc34)C(=O)NC2=O)c2ccccc21`: the GI50 is 6.26 µM in experiment [1]; 3.98 µM in experiment [2]; 4.56 µM in experiment [3]; 3.38 µM in experiment [4]; 2.01 µM in [5]; 0.0877 µM in experiment [6]. For the same compound, the GI50 in [7] was 5.87 µM; in [8], 0.968 µM; in [9], 2.1 µM; in experiment [10], 8.71 µM. Moreover, the TGI in [1] was over 25 µM; in [2], over 18.5 µM; in experiment [3], over 19.1 µM; in experiment [4], 18.5 µM; in experiment [5], over 14.8 µM; in experiment [6] it was 6.63 µM. Also, the TGI worked out at 19.2 µM in experiment [7], 5.11 µM in experiment [8], 9.38 µM in experiment [9] and 24.7 µM in experiment [10].

`COc1ccc(-c2nn(C(=O)c3cc(OC)c(OC)c(OC)c3)c3cc(N)ccc23)cc1`: the GI50 in experiment [1] was under 0.0151 µM; in experiment [2], under 0.0156 µM; in experiment [3], 0.15 µM; in experiment [4], 1.76 µM; in experiment [5], 2.17 µM; in experiment [6] it was 0.0249 µM. Moreover, the GI50 in [7] was 6.09 µM; in [8], under 0.01 µM; in experiment [9] it was under 0.0175 µM; in [10] it was under 0.0196 µM. For the same compound, the TGI in experiment [1] came to 2.67 µM; in [2], 7.28 µM; in [3], 6.71 µM; in experiment [4], 24.3 µM; in experiment [5] it was 7.58 µM; in experiment [6], 14.3 µM. Moreover, the TGI in experiment [7] came to 27.4 µM; in experiment [8], 1.24 µM; in [9], 9.56 µM; in experiment [10], 5.05 µM.

The values above are taken from PubChem BioAssay (NCI).
